In BindingDB's records for doi:10.7270/Q25D8Q92 (Burnham Center For Chemical Genomics, 2011):

Molecular target: T1, Bcl-2-related protein A1 (Mus musculus, UniProt Q07440)
T1 sequence (Q07440 whole entry): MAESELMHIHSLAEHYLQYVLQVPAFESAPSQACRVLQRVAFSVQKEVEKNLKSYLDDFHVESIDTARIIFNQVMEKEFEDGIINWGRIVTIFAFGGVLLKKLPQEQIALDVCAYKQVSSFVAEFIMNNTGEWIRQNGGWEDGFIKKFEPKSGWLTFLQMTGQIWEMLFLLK
Test: Bfl-1 inhibitors in counterscreen, dose response, biochemical (AID 504689)

Compound: O=C1N=c2ccccc2=C1NNC(=S)NCC1CCCO1 (stereo not given)
- IC50: > 20 µM

Compound: Cc1cccc(NC(=S)NNC2=c3ccccc3=NC2=O)c1
- IC50: > 20 µM

Compound: COc1ccc(CN=Nc2cc(C)nc3ccc(OC)cc23)c(OC)c1
- IC50: 11.4 µM

Compound: Cc1cc(C)c2c(c1)=C(NNC(=S)NCC1CCCO1)C(=O)N=2 (stereo not given)
- IC50: > 20 µM

Compound: O=C1Nc2ccc([N+](=O)[O-])cc2C1=NNC(=S)NCC1CCCO1 (stereo not given)
- IC50: > 20 µM

Compound: NC(=S)NN=C1C(=O)N(CCCl)c2ccccc21
- IC50: > 20 µM

Compound: COC(=O)c1ccc(CN2C(=O)C(=NNC(N)=S)c3ccccc32)o1
- IC50: > 20 µM

Compound: CCOC(=O)C1C(COC(=O)c2ncc(Cl)c(Cl)c2Cl)=NC(=O)NC1C (stereo not given)
- IC50: > 20 µM

Compound: COCCNC(=S)NN=C1C(=O)Nc2ccc([N+](=O)[O-])cc21 [1-(2-methoxyethyl)-3-[(5-nitro-2-oxoindol-3-yl)amino]thiourea]
- IC50: > 20 µM

Compound: O=C1Nc2ccccc2/C1=N/NC(=S)Nc1ccc(O)cc1 [1-(4-hydroxyphenyl)-3-[(2-oxidanylideneindol-3-yl)amino]thiourea]
- IC50: > 20 µM

Compound: CCCCNC(=S)N/N=C1\C(=O)Nc2ccccc21 [1-butyl-3-[(2-oxidanylideneindol-3-yl)amino]thiourea]
- IC50: > 20 µM

Compound: CCNC(=S)NNC1=c2cc(C(C)C)ccc2=NC1=O [1-ethyl-3-[(2-oxo-5-propan-2-yl-3-indolyl)amino]thiourea]
- IC50: > 20 µM

Compound: CCN(CC)CCOC(=O)c1ccc(N=CC(C#N)c2nc(-c3ccc4c(c3)OCO4)cs2)cc1 (stereo not given) [2-(diethylamino)ethyl 4-[[(Z)-2-[4-(1,3-benzodioxol-5-yl)-1,3-thiazol-2-yl]-2-cyano-ethenyl]amino]benzoate]
- IC50: 1.72 µM

Compound: CCN(CC)CCOC(=O)c1ccc(N=CC(C#N)c2nc(-c3cc4ccccc4oc3=O)cs2)cc1 (stereo not given) [2-(diethylamino)ethyl 4-[[(Z)-2-cyano-2-[4-(2-oxochromen-3-yl)-1,3-thiazol-2-yl]ethenyl]amino]benzoate]
- IC50: 0.55 µM

Compound: CCN(CC)CCOC(=O)c1ccc(N=CC(C#N)c2nc(-c3ccc(OC)cc3)cs2)cc1 (stereo not given) [4-[[(Z)-2-cyano-2-[4-(4-methoxyphenyl)-2-thiazolyl]ethenyl]amino]benzoic acid 2-(diethylamino)ethyl ester]
- IC50: 2.99 µM

Compound: CC(=O)N1N=C(C2C(=O)N(C)C(=O)N(C)C2=O)CC1c1ccccc1 (stereo not given) [5-(1-acetyl-5-phenylpyrazolidin-3-ylidene)-1,3-dimethyl-1,3-diazinane-2,4,6-trione]
- IC50: > 20 µM

Compound: N=C(N)C1=CC(=O)/C(=C/C=c2ccc(=C(N)N)cc2)C=C1 [(4E)-4-[2-[4-[bis(azanyl)methylidene]cyclohexa-2,5-dien-1-ylidene]ethylidene]-3-oxidanylidene-cyclohexa-1,5-diene-1-carboximidamide;2-oxidanylethanesulfonic acid]
- IC50: > 20 µM

Compound: C#CCOCCOCCOCCNc1nc(N2CCN(C(=O)CCCCCCCCCCNC(=O)[C@H](CCCCN)n3cc(CCCC(=O)O)nn3)CC2)nc(N2CCN(C(=O)CCCCCCCCCCNC(=O)[C@H](CCCN=C(N)N)n3cc(C[C@@H](C)CC)nn3)CC2)n1 [EK-IR]
- IC50: 13.9 µM

Compound: C#CCOCCOCCOCCNc1nc(N2CCN(C(=O)CCCCCCCCCCNC(=O)[C@H]([C@@H](C)CC)n3cc(CCCCN=C(N)N)nn3)CC2)nc(N2CCN(C(=O)CCCCCCCCCCNC(=O)[C@@H]([C@H](C)O)n3cc(C)nn3)CC2)n1 [GT-RI]
- IC50: > 20 µM

Compound: C#CCOCCOCCOCCNc1nc(N2CCN(C(=O)CCCCCCCCCCNC(=O)Cn3cc(CCCCCN)nn3)CC2)nc(N2CCN(C(=O)CCCCCCCCCCNC(=O)[C@H]([C@@H](C)CC)n3cc(CCCCN=C(N)N)nn3)CC2)n1 [KG-RI]
- IC50: 9.73 µM

Compound: C#CCOCCOCCOCCNc1nc(N2CCN(C(=O)CCCCCCCCCCNC(=O)Cn3cc(CCCCCN)nn3)CC2)nc(N2CCN(C(=O)CCCCCCCCCCNC(=O)Cn3cc(C[C@@H](C)O)nn3)CC2)n1 [KG-TG]
- IC50: > 20 µM

Compound: C#CCOCCOCCOCCNc1nc(N2CCN(C(=O)CCCCCCCCCCNC(=O)[C@H]([C@@H](C)CC)n3cc(CCCCCN)nn3)CC2)nc(N2CCN(C(=O)CCCCCCCCCCNC(=O)[C@H](CCCCN)n3cc(CCCC(=O)O)nn3)CC2)n1 [KI-EK]
- IC50: > 20 µM

Compound: C#CCOCCOCCOCCNc1nc(N2CCN(C(=O)CCCCCCCCCCNC(=O)[C@@H](CCC(=O)O)n3cc(CCCCCN)nn3)CC2)nc(N2CCN(C(=O)CCCCCCCCCCNC(=O)[C@H]([C@@H](C)CC)n3cc(CCCCCN)nn3)CC2)n1 [KI-KE]
- IC50: > 20 µM

Compound: C#CCOCCOCCOCCNc1nc(N2CCN(C(=O)[C@H](Cc3cc4ccccc4[nH]3)n3cc([C@@H](N)CC(C)C)nn3)CC2)nc(N2CCN(C(=O)[C@H](Cc3cc4ccccc4[nH]3)n3cc([C@@H](N)CC(C)C)nn3)CC2)n1 [LW-LW]
- IC50: 19.7 µM

Compound: CCOC(=O)c1c(C)c2c(n1C)CCCC2N=O (stereo not given) [MLS000026784]
- IC50: > 20 µM

Compound: C#CCOCCOCCOCCNc1nc(N2CCN(C(=O)[C@H](CCCCN)n3cc([C@@H](N)C(C)CC)nn3)CC2)nc(N2CCN(C(=O)[C@H](Cc3cc4ccccc4[nH]3)n3cc([C@@H](N)C(C)CC)nn3)CC2)n1 (stereo not given in full) [MLS000562580]
- IC50: > 20 µM

Compound: C#CCOCCOCCOCCNc1nc(N2CCN(C(=O)[C@H](Cc3cc4ccccc4[nH]3)n3cc([C@@H](N)C(C)CC)nn3)CC2)nc(N2CCN(C(=O)[C@H](CCCCN)n3cc([C@@H](N)CC(C)C)nn3)CC2)n1 (stereo not given in full) [MLS000562581]
- IC50: > 20 µM

Compound: COCCNC(=S)NNC1=c2cc(C)cc(C)c2=NC1=O [MLS000774564]
- IC50: > 20 µM

Compound: COc1cc2c3c(c1)/C(=N/NC(N)=S)C(=O)N3C(C)(C)C=C2C [MLS000807018]
- IC50: > 20 µM

Compound: CCOC(=O)C1C(COC(=O)c2cc(OC)c(OC)c(OC)c2)=NC(=O)NC1C (stereo not given) [MLS001161811]
- IC50: > 20 µM

Compound: Oc1c(Cc2cnc[nH]2)[nH]c(=S)n1-c1ccccc1 [MLS001163810]
- IC50: > 20 µM

Compound: C#CCOCCOCCOCCNc1nc(N2CCN(C(=O)CCCCCCCCCCNC(=O)Cn3cc(C[C@@H](C)O)nn3)CC2)nc(N2CCN(C(=O)CCCCCCCCCCNC(=O)[C@H](CCCN=C(N)N)n3cc(C[C@@H](C)CC)nn3)CC2)n1 [MLS002153601]
- IC50: 10.1 µM

Compound: C#CCOCCOCCOCCNc1nc(N2CCN(C(=O)CCCCCCCCCCNC(=O)[C@H](CCCCN)n3cc(CCO)nn3)CC2)nc(N2CCN(C(=O)CCCCCCCCCCNC(=O)[C@H](CCCCN)n3cc(CCCC(=O)O)nn3)CC2)n1 [MLS002153608]
- IC50: > 20 µM

Compound: C#CCOCCOCCOCCNc1nc(N2CCN(C(=O)CCCCCCCCCCNC(=O)[C@H](CCCCN)n3cc(C)nn3)CC2)nc(N2CCN(C(=O)CCCCCCCCCCNC(=O)[C@H](CCCN=C(N)N)n3cc(C[C@@H](C)CC)nn3)CC2)n1 [MLS002153614]
- IC50: 6.58 µM

Compound: C#CCOCCOCCOCCNc1nc(N2CCN(C(=O)CCCCCCCCCCNC(=O)[C@H](CCCCN)n3cc(CCO)nn3)CC2)nc(N2CCN(C(=O)CCCCCCCCCCNC(=O)[C@H](CCCCN)n3cc(CCO)nn3)CC2)n1 [MLS002153615]
- IC50: > 20 µM

Compound: C#CCOCCOCCOCCNc1nc(N2CCN(C(=O)CCCCCCCCCCNC(=O)[C@H](CCCCN)n3cc(C)nn3)CC2)nc(N2CCN(C(=O)CCCCCCCCCCNC(=O)[C@@H]([C@H](C)CC)n3cc(CCCCCN)nn3)CC2)n1 [MLS002153655]
- IC50: 8.02 µM

Compound: C#CCOCCOCCOCCNc1nc(N2CCN(C(=O)CCCCCCCCCCNC(=O)Cn3cc(CCCCCN)nn3)CC2)nc(N2CCN(C(=O)CCCCCCCCCCNC(=O)[C@H](CO)n3cc(CCCSC)nn3)CC2)n1 [MLS002153667]
- IC50: 11.8 µM

Compound: C#CCOCCOCCOCCNc1nc(N2CCN(C(=O)CCCCCCCCCCNC(=O)[C@H](CCCCN)n3cc(CCO)nn3)CC2)nc(N2CCN(C(=O)CCCCCCCCCCNC(=O)[C@@H]([C@H](C)O)n3cc(C)nn3)CC2)n1 [MLS002153685]
- IC50: > 20 µM

Compound: C#CCOCCOCCOCCNc1nc(N2CCN(C(=O)CCCCCCCCCCNC(=O)Cn3cc(CCCCCN)nn3)CC2)nc(N2CCN(C(=O)CCCCCCCCCCNC(=O)[C@H]([C@@H](C)CC)n3cc(CCCCCN)nn3)CC2)n1 [MLS002153714]
- IC50: > 20 µM

Compound: C#CCOCCOCCOCCNc1nc(N2CCN(C(=O)CCCCCCCCCCNC(=O)[C@H]([C@@H](C)CC)n3cc(CCCCCN)nn3)CC2)nc(N2CCN(C(=O)CCCCCCCCCCNC(=O)[C@H]([C@@H](C)CC)n3cc(CCCCN=C(N)N)nn3)CC2)n1 [MLS002153718]
- IC50: 6.1 µM

Compound: C#CCOCCOCCOCCNc1nc(N2CCN(C(=O)CCCCCCCCCCNC(=O)[C@@H](CCSC)n3cc(CCO)nn3)CC2)nc(N2CCN(C(=O)CCCCCCCCCCNC(=O)[C@H](CCC(=O)O)n3cc(CCCCCN)nn3)CC2)n1 [MLS002153730]
- IC50: > 20 µM

Compound: C#CCOCCOCCOCCNc1nc(N2CCN(C(=O)CCCCCCCCCCNC(=O)[C@@H](CCSC)n3cc(CCO)nn3)CC2)nc(N2CCN(C(=O)CCCCCCCCCCNC(=O)[C@H](CO)n3cc(CCCCCN)nn3)CC2)n1 [MLS002153734]
- IC50: > 20 µM

Compound: C#CCOCCOCCOCCNc1nc(N2CCN(C(=O)[C@H](CCCN=C(N)N)n3cc(C(N)[C@H](C)CC)nn3)CC2)nc(N2CCN(C(=O)[C@H](CCCN=C(N)N)n3cc(C(N)[C@@H](C)CC)nn3)CC2)n1 (stereo not given in full) [MLS002473475]
- IC50: > 20 µM

Compound: COc1ccc2nc(C)cc(N=NCc3ccc(F)cc3)c2c1 [N-[(4-fluorophenyl)methylideneamino]-6-methoxy-2-methyl-4-quinolinamine]
- IC50: 17 µM

Compound: C#CCOCCOCCOCCNc1nc(N2CCN(C(=O)CCCCCCCCCCNC(=O)[C@H]([C@@H](C)CC)n3cc(CCCCN=C(N)N)nn3)CC2)nc(N2CCN(C(=O)CCCCCCCCCCNC(=O)[C@H](CCCCN)n3cc(C)nn3)CC2)n1 [RI-GK]
- IC50: 8.52 µM

Compound: CC1=CC(C)(C)N2C(=O)/C(=N\NC(N)=S)c3cccc1c32 [SMR000218901]
- IC50: > 20 µM

Compound: CC(C)NC(=S)NNC1=c2cc(C(C)C)ccc2=NC1=O [SMR000242097]
- IC50: > 20 µM

Compound: COc1cc(C2c3c(-c4cccs4)n[nH]c3OC(=N)C2C#N)cc(OC)c1O (stereo not given) [SMR000275523]
- IC50: > 20 µM

Compound: CCOc1ccc(-c2csc(NC(=O)c3cccc(-n4c(O)ccc4O)c3)n2)cc1 [SMR000319795]
- IC50: > 20 µM

Compound: C#CCOCCOCCOCCNc1nc(N2CCN(C(=O)[C@H](CCCCN)n3cc([C@@H](N)C(C)CC)nn3)CC2)nc(N2CCN(C(=O)[C@H](Cc3cc4ccccc4[nH]3)n3cc([C@@H](N)CC(C)C)nn3)CC2)n1 (stereo not given in full) [SMR000391070]
- IC50: > 20 µM
